Results as given in article PMC12469672, “Effects on Oral Squamous Carcinoma Cell Lines and Their Mechanisms of Pyrazole N-Aryl Sulfonate: A Novel Class of Selective Cyclooxygenase-2 Inhibitors” (International Journal of Molecular Sciences, 2025).
pIC50: −log10 of the molar value. “Also recorded” adds a separate entry of the source. Like-named read-outs stand apart in the source and are kept apart here.

Tests used:
[1] = tested on: SAS cells; assay: CCK-8 proliferation assay, SAS; format: cell-based; conditions: for pIC50: SAS; for Selectivity Index SAS: SI = IC50,VERO/IC50,SAS
Protocol: The OSCC cell lines CAL-27 (STCC12901P, Servicebio, Wuhan, China) and SAS (CC0706, Cellcook, Guangzhou, China) were cultured in Dulbecco Modified Eagle Medium F12 (DMEM/F12) (G4610-500ML, Servicebio, Wuhan, China) supplemented with 10% fetal bovine serum (FBS) (AB-FBS-DIA1050, ABW, Shanghai, China) and 100 U/mL penicillin-streptomycin-gentamicin solution (G4014-100ML, Servicebio, Wuhan, China). VERO cells were cultured in DMEM (G4524-500ML, Servicebio, Wuhan, China) supplemented with 10% FBS (AB-FBS-DIA1050, ABW, China) and 100 U/mL penicillin–streptomycin–gentamicin solution (G4014-100ML, Servicebio, Wuhan, China). […] were maintained at 37 °C in a humidified 5% CO2 incubator. For experiments, 1 × 10^6 cells were seeded per T-25 culture flask.
CAL-27, SAS, and VERO cells were seeded in 96-well plates at a density of 5000 cells per well. At specified time intervals, 10 μL of Cell Counting Kit-8 (CCK-8) reagent (K1018, Apexbio, Boston, MA, USA) was added to each well and incubated for 2 h. Absorbance at 450 nm was measured using a microplate reader (Infinite M200 Pro, Tecan Group, Männedorf, Switzerland).

[2] = tested on: COX-2 mRNA in SAS cells; assay: RT-qPCR COX-2 mRNA, SAS; format: cell-based; conditions: working concentrations, 24 h, vs control
Protocol: (§1) Equal amounts of RNA were reverse transcribed into cDNA using the Reverse Transcription Kit (AG11705, Accurate Biology, Guangzhou, China) following the manufacturer’s instructions. Quantitative PCR was performed on a QIAGEN Rotor-GeneQ system (9001862, QIAGEN, Hilden, Germany) with SYBR Green Pro Taq HS Premix II (AG11702, Accurate Biology, China).
(§2) The PCR protocol consisted of initial denaturation at 95 °C for 30 s, followed by 40 cycles of 95 °C for 5 s and 60 °C for 30 s. All reactions were performed in triplicate, with melting curve analysis confirming amplification specificity. The expression of the target genes was normalized to GAPDH, and fold changes were calculated in the manner of the 2^−ΔΔCT .

[3] = tested on: CYP19A1 mRNA in CAL-27 cells; assay: RT-qPCR CYP19A1 mRNA, CAL-27; format: cell-based; conditions: CAL-27, vs control
Protocol: as §1, §2

[4] = tested on: SAS cells; assay: Transwell migration assay, SAS; format: cell-based; conditions: 24 h treatment at working concentrations, vs control
Protocol: Following 24 h drug treatment at the predefined working concentrations, CAL-27 and SAS cells (5 × 10^5 cells/mL in serum-free medium) were seeded in Transwell upper chambers (200 μL/well, 1 × 10^5 cells) with 700 μL complete medium containing 10% FBS in lower chambers. After 36 h of incubation (37 °C, 5% CO2), the cells from the upper surface of the membrane were wiped off using a cotton swab, whereupon migrated cells were fixed (4% paraformaldehyde [P0099-100 mL, Beyotime, Haimen, China], 4 °C, 4 h), stained (0.1% crystal violet [C0121-100 mL, Beyotime, China], 30 min), and quantified by counting five random fields under a microscope (CX23, Olympus, Tokyo, Japan) using ImageJ (v1.8.0.322), with triplicate wells per condition.

[5] = tested on: MMP2 mRNA in CAL-27 cells; assay: RT-qPCR MMP2 mRNA, CAL-27; format: cell-based; conditions: CAL-27, 24 h, vs control
Protocol: as §1, §2

[6] = tested on: MMP2 mRNA in SAS cells; assay: RT-qPCR MMP2 mRNA, SAS; format: cell-based; conditions: vs control
Protocol: as §1, §2

[7] = tested on: CAL-27 cells; assay: Annexin V-FITC/PI flow cytometry apoptosis, CAL-27; format: cell-based; conditions: CAL-27, 24 h, vs control
Protocol: (§3) After 24 h drug treatment at the predefined working concentrations, CAL-27 and SAS cells were trypsinized, centrifuged (200× g, 5 min, RT), and washed twice with 1 mL ice-cold PBS. Cell aliquots ((5–10) × 10^4 cells) were resuspended in 195 μL Annexin V-FITC binding buffer, followed by sequential addition of 5 μL Annexin V-FITC and 10 μL propidium iodide (PI) (BMS500FI-100, Thermo Fisher Scientific, Wien, Austria) with gentle mixing. After 10–20 min of incubation in darkness (20–25 °C) with intermittent resuspension (2–3 times), samples were placed on ice and analyzed within 1 h using a flow cytometer (CytExpert software [Version 2.4.0.28, Beckman Coulter, Brea, CA, USA]). Triplicate independent experiments were performed for statistical analysis.

[8] = tested on: SAS cells; assay: Annexin V-FITC/PI flow cytometry apoptosis, SAS; format: cell-based; conditions: 24 h, vs control
Protocol: as §3

[9] = tested on: BCL2 protein in CAL-27 cells; assay: Western blot BCL2, CAL-27; format: cell-based; conditions: CAL-27, vs CXB
Protocol: Cell lysates were centrifuged at 12,000× g for 10 min at 4 °C and then quantified using the BCA Protein Assay Kit (CW0014S, Cwbio, Taizhou, China). The lysate was denatured with sodium dodecyl sulfate–polyacrylamide gel electrophoresis (SDS-PAGE) sample loading buffer (P1040, Solarbio, Beijing, China), followed by SDS-PAGE and electrotransfer to polyvinylidene difluoride membranes (10600023, Cytiva, Marlborough, MA, USA). The membranes were incubated overnight at 4 °C with GAPDH (1:5000, 1049-1-AP, Proteintech Group, Wuhan, China), anti-PTGS2 (1:2000, 12375-1-AP, Proteintech Group, China), anti-BAX (1:1000, ab777, Abcam, Cambridge, UK), anti-BCL2 (1:5000, ET1702-53, HUABIO, Hangzhou, China), anti-BCL-XL (1:8000, 10783-1-AP, Proteintech Group, China), anti-MMP2 (1:3000, 66366-1-Ig, Proteintech Group, China), anti-MMP9 (1:3000, 10372-2-AP, Proteintech Group, China), anti-JAK1 (1:3000, 66466-1-Ig, Proteintech Group, China), anti-phospho-JAK1 (1:400, GB115604-100, Servicebio, China), anti-STAT3 (1:2000, 10253-2-AP, Proteintech Group, China), and anti-phospho-STAT3 (1:1000, 39595, Activemotif, Shanghai, China) at the appropriate dilution and then incubated with the secondary antibody at room temperature for 1.5 h. The bands were visualized by employing an ECL detection reagent (36208ES76, Yeasen, Shanghai, China) and independently quantified twice using ImageJ (v1.8.0.322) and ChemiScope Analysis (Version 2.1.6.0) software. Subsequently, the obtained data were normalized to GAPDH.

[10] = tested on: HepG2; conditions: previous experiments, preliminary screening; cited from earlier work
[11] = CCK-8, 24 h, given as a range, read-out: IC50 (range)

Cc1cc(-c2ccco2)nn1S(=O)(=O)Oc1ccccc1Cl [Compound 5f]
pIC50 [1, 11]: 4.16 to 4.23
pIC50 ([1]; CCK-8, read-out: IC50 SAS): 4.19
Selectivity Index SAS [1]: 3.50
COX-2 mRNA level [2]: significantly downregulated
CYP19A1 mRNA expression [3]: slightly influenced the expression, although not significantly
migratory capacity (Transwell) [4]: significantly reduced
MMP2 mRNA expression [5]: significantly downregulated
MMP2 mRNA expression [6]: no statistically significant suppression
total apoptotic cell population (early and late apoptosis) [7]: significantly higher
total apoptotic cell population (early and late apoptosis) [8]: significantly higher; also recorded: optimal efficacy
BCL2 protein suppression (Western blot) [9]: stronger suppression of BCL2 than CXB
antiproliferative effect on HepG2 [10]: concentration-dependent antiproliferative effects
apoptosis of HepG2 [10]: induction of apoptosis
migration of HepG2 [10]: suppression of migration

Cc1ccc(-c2cc(C)n(S(=O)(=O)Oc3ccc(I)cc3)n2)cc1 [Compound 4b]
pIC50 [1, 11]: 4.46 to 4.58
pIC50 ([1]; CCK-8, read-out: IC50 SAS): 4.52
Selectivity Index SAS [1]: 3.40
COX-2 mRNA level [2]: significantly downregulated
CYP19A1 mRNA expression [3]: significantly downregulated
migratory capacity (Transwell) [4]: significantly reduced
MMP2 mRNA expression [5]: significantly downregulated
MMP2 mRNA expression [6]: markedly suppressed
total apoptotic cell population (early and late apoptosis) [7]: significantly higher; also recorded: strongest pro-apoptotic effect
total apoptotic cell population (early and late apoptosis) [8]: significantly higher
BCL2 protein suppression (Western blot) [9]: stronger suppression of BCL2 than CXB
antiproliferative effect on HepG2 [10]: concentration-dependent antiproliferative effects
apoptosis of HepG2 [10]: induction of apoptosis
migration of HepG2 [10]: suppression of migration

Cc1ccc(-c2cc(C)n(S(=O)(=O)Oc3ccccc3Cl)n2)cc1 [Compound 4d]
pIC50 [1, 11]: 4.61 to 5.13
pIC50 ([1]; CCK-8, read-out: IC50 SAS): 4.78
Selectivity Index SAS [1]: >6.00
COX-2 mRNA level [2]: marked upregulation
CYP19A1 mRNA expression [3]: significantly downregulated
migratory capacity (Transwell) [4]: significantly reduced
MMP2 mRNA expression [5]: significantly downregulated
MMP2 mRNA expression [6]: markedly suppressed
total apoptotic cell population (early and late apoptosis) [7]: significantly higher
total apoptotic cell population (early and late apoptosis) [8]: significantly higher
BCL2 protein suppression (Western blot) [9]: stronger suppression of BCL2 than CXB
antiproliferative effect on HepG2 [10]: concentration-dependent antiproliferative effects
apoptosis of HepG2 [10]: induction of apoptosis
migration of HepG2 [10]: suppression of migration
